The text below walks through data of patent publication US20120095046A1, “Amido-Isothiazole Compounds and Their Use as Inhibitors of 11Beta-HSD1 for the Treatment of Metabolic Syndrome and Related Disorders” (THE UNIVERSITY OF EDINBURGH, priority 2009, published 2012).

One test concerns the target T1, human 11β-HSD1 enzyme (Homo sapiens, UniProt P28845).
T1 construct: stably transfected with a construct containing the full-length gene coding for the human 11β-HSD1 enzyme; expressed in transfected cells; HEK293/11β-HSD1)
Description: Cellular in vitro 11β-HSD1 enzyme inhibition assay (SPA, HEK293/11β-HSD1 cells). It is filed as cell-based. The conditions noted are these: HEK293 cells stably transfected with human 11β-HSD1; 22 nM tritiated cortisone, 2 hours. Here is the method:
Cellular In Vitro 11β-HSD1 Enzyme Inhibition Assay
Compounds were assessed by a Scintillation Proximity Assay (SPA) performed according to the following protocol:
HEK293 cells were stably transfected with a construct containing the full-length gene coding for the human 11β-HSD1 enzyme to create HEK293/11β-HSD1 cells. Cells were routinely cultured in DMEM containing 10% calf foetal serum, 1% glutamine, and 1% penicillin and streptomycin. Prior to assay, cells were plated at 2×10^4 cells/well in 96-well poly-D-Lys coated flat-bottomed microplates and incubated in 5% CO2, 95% O2 at 37° C. for 24 hours. The media in each well was removed immediately before assay.
Compounds to be tested were dissolved in DMSO at 10 mM and serially diluted into water containing 10% DMSO. Diluted compounds at a volume of 10 μL were added to wells of a 96-well V-bottomed microplate. A solution of DMEM, 1% glutamine, 1% penicillin and streptomycin, and 22 nM tritiated cortisone was prepared and 90 μL added to each well of the assay plate. This solution (100 μL/well) was transferred to the plate containing the cells. The plate was then incubated in 5% CO2, 95% O2 at 37° C. for 2 hours.
Following this incubation, 50 μL of the assay solution was transferred to each well of a 96-well scintillation microplate. A mixture consisting of anti-mouse YSi SPA beads, pre-mixed with anti-cortisol antibody in assay buffer (50 mM Tris.HCl, pH 7.0; 300 mM NaCl; 1 mM EDTA, 5% glycerol) was prepared and 50 μL added to each well of the scintillation microplate. An adhesive strip was applied to the microplate and the plate gently shaken for at least 2 hours at room temperature, and then spun briefly on a low speed centrifuge. The plate was read on a scintillation counter suitable for 96-well microplates. For the calculation of percentage inhibition, a series of wells were added to the plate that represented the assay maximum and the assay minimum: one set that contained substrate without cells (minimum) and another set that contained substrate and cells without any compound (maximum).
The calculation of median inhibitory concentration (IC50) values for the compounds was performed using GraphPad Prism® software. Dose-response curves for each compound were plotted as fractional inhibition and data fitted to the four parameter logistic equation.

For the next test, the target named is T2, human 11β-HSD2 (Homo sapiens, UniProt P80365).
T2 construct: CHO cells stably transfected with the full-length gene coding for human 11β-HSD2 were used; expressed in transfected cells
T2 sequence (P80365 1-405): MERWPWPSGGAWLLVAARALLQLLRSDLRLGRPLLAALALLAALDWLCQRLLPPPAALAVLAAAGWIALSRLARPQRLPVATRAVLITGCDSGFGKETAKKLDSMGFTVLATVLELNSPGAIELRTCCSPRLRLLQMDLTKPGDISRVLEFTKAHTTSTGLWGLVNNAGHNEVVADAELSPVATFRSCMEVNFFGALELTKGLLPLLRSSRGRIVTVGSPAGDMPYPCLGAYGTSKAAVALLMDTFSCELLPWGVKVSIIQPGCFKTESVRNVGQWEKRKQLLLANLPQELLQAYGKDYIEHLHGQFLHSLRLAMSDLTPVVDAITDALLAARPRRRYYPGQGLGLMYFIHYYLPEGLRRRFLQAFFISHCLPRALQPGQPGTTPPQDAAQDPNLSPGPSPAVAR
Description: Cellular in vitro 11β-HSD2 enzyme inhibition assay (CHO cells, TLC/phosphoimager). It is filed as cell-based. The conditions noted are these: CHO cells stably transfected with human 11β-HSD2; 22 nM tritiated cortisol, 16 hours. Here is the method: Cellular In Vitro 11β-HSD2 Enzyme Inhibition Assay
For measurement of inhibition of 11β-HSD2, CHO cells stably transfected with the full-length gene coding for human 11β-HSD2 were used. Assays were carried out in 96-well microplates containing 1×10^5 cells/well. Controls and compounds were plated as above, so that the final DMSO concentration in each well was 1%. To initiate the assay, 90 μL of a solution of HAMS F-12 medium containing 1% glutamine, 1% penicillin and streptomycin, and 22 nM tritiated cortisol was added to each well of the assay plate. The plate was then incubated in 5% CO2, 95% O2 at 37° C. for 16 hours.
The assay solutions were transferred to glass tubes and 20 μL ethyl acetate added to each tube. Each tube was vortexed thoroughly and the upper layer containing the tritiated steroid transferred to a fresh glass tube. The solvent was evaporated by placing the tubes in a heating block at 65° C. under a stream of Nitrogen gas. 20 μL ethanol was added to each of the dried samples and vortexed briefly. Each sample was applied to a silica TLC plate and the plate dried. The plate was placed vertically in a glass tank containing 92% chloroform:8% ethanol and the solvent allowed to rise up the plate. The plate was dried, placed in an imaging cassette, and overlayed with a tritium imaging plate for 1-2 days. The amount of enzyme inhibition in each sample was determined by measuring the intensity of the substrate and product spots using a phosphoimager.
IC50 values for inhibitors were determined as described for 11β-HSD1.

T1 sequence (P28845 whole entry): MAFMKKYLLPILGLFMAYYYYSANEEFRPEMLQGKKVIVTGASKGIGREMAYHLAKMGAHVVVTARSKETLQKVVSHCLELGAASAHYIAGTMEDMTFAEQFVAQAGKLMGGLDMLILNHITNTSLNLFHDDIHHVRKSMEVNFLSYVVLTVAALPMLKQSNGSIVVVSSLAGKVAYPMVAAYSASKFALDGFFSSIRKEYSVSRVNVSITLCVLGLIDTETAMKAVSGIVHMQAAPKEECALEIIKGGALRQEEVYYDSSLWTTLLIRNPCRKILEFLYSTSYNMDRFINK

As a reminder, the IC50 is the concentration that gives 50% inhibition. As to `O=C(c1cnsc1-c1ccccc1)N1CCCC2CCCCC21` (stereo not drawn) [AA-01, (Octahydro-quinolin-1-yl)-(5-phenyl-isothiazol-4-yl)-methanone], the IC50 against human 11β-HSD1 enzyme is 59 nM; at human 11β-HSD2 it was above 10000 nM.

For the molecule `O=C(c1cc(-c2ccccc2)sn1)N1CCCC2CCCCC21` (stereo not drawn) [AA-02, (Octahydro-quinolin-1-yl)-(5-phenyl-isothiazol-3-yl)-methanone], the IC50 at human 11β-HSD1 enzyme was at most 500 nM; at human 11β-HSD2 it was above 10000 nM.

With `O=C(c1cc(-c2cn[nH]c2)sn1)N1CCC[C@@H]2CCCC[C@@H]21` [BB-01, (4aS,8aS)-Octahydro-quinolin-1-yl-[5-(1H-pyrazol-4-yl)-isothiazol-3-yl]-methanone], the IC50 is 18 nM against human 11β-HSD1 enzyme and above 10000 nM against human 11β-HSD2.

For `O=C(c1cc(-c2cn[nH]c2)sn1)N1CCCC1c1ccc(F)cc1` (stereo not drawn) [BB-02, [2-(4-Fluoro-phenyl)-pyrrolidin-1-yl]-[5-(1H-pyrazol-4-yl)-isothiazol-3-yl]-methanone], the figures for the IC50 against human 11β-HSD1 enzyme and against human 11β-HSD2 were at most 500 nM and above 10000 nM, respectively.

As for `O=C1c2ccccc2C(=O)N1c1cc(C(=O)N2CCC[C@@H]3CCCC[C@@H]32)ns1` [BB-03, 2-[3-((4aS,8aS)-Octahydro-quinoline-1-carbonyl)-isothiazol-5-yl]-isoindole-1,3-dione], the IC50 was at most 500 nM against human 11β-HSD1 enzyme and above 10000 nM at human 11β-HSD2.

Regarding `O=C(c1cc(C2CCOCC2)sn1)N1CCC[C@@H]2CCCC[C@@H]21` [CC-01, (4aS,8aS)-Octahydro-quinolin-1-yl-[5-(tetrahydro-pyran-4-yl)-isothiazol-3-yl]-methanone], the IC50 against human 11β-HSD1 enzyme is 62 nM; against human 11β-HSD2 it was above 10000 nM.
